The record followed here is PubChem BioAssay (NCI).

Several values for one entry are separate records, joined by “and”; a condition that tells them apart may be missing. Equal values may be shown once.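 Cells were grown in 96-well plates and exposed to each compound for 48 hours at five concentrations; endpoints were interpolated linearly between bracketing concentrations, or set to the highest concentration if not reached. The concentration for 50% growth inhibition is given as GI50. TGI marks complete inhibition of growth.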 Where a SMILES comes first, the peptide text is derived from it. The star is where a group is joined. Fmoc = O=C(OCC1c2ccccc2-c2ccccc21)*; Boc = CC(C)(C)OC(=O)*

What all share (assay): NCI tumour cell line growth inhibition, 48 h
Test [1] has as its system SK-MEL-5 melanoma.
In test [2] the test system is OVCAR-3 ovarian.
Test [3] concerns HOP-92 NSCLC.
Test [4] relates to A498 renal.
Test [5] deals with MCF7 breast.
Test [6] relates to ACHN renal.
Test [7] concerns T-47D breast.
The subject of test [8] is SK-OV-3 ovarian.
In test [9] the test system is CCRF-CEM leukemia.
The subject of test [10] is HS 578T breast.

Take `Brc1ccc2c(c1)-c1nc3nc4c(cc3cc1CC2)CCc1ccc(Br)cc1-4`: the TGI in [1], in test [2], in test [3], in test [4], in [5] and in [6] was above 100 µM each time. In addition, the TGI in [7] and in test [8] was above 100 µM throughout.

As to `O=C(NCCNCCCNC(=O)c1cc(-c2ccccc2)nc2ccccc12)c1cccc(OCc2ccccc2)c1OCc1ccccc1`, the TGI in test [1] was 3.12 µM; in test [2], 3.36 µM; in [3], 3.23 µM; in test [4], 2.98 µM; in [5], 3.1 µM; in test [6], 3.11 µM. Also, the results for the TGI in test [7], in [8] and in test [9] were 4.2 µM, 3.1 µM and 3.47 µM, respectively.

`O=C(O)c1ccc(C2SCc3nc4ccccc4n32)cc1` (stereo not given): the TGI in test [1], in test [10], in test [2], in test [3], in [4] and in test [5] was above 100 µM each time. For the same molecule, the TGI in test [6] and in [9] was above 100 µM throughout.

Regarding `O=C(c1ccc(Cl)cc1)N(C(=S)OCc1ccccn1)c1ccccc1`, the TGI in test [1], in [10], in [2], in [4], in test [5] and in test [6] was above 100 µM throughout. In addition, the values for the TGI in test [7], in test [8] and in test [9] were 93.5 µM, above 100 µM and above 100 µM, respectively.

In the case of `CSC12c3cc(C)n(-c4ccccc4)c3CC(C)(C)CN1C(=O)C2Oc1ccccc1` (stereo not given), the TGI in test [1], in test [2], in test [3], in test [4], in test [5] and in [6] was above 100 µM throughout. The TGI in [7] and in test [9] was above 100 µM throughout.

In the case of `C=CCOC(=O)C1=C(CCC[C@@H](C)O[Si](C)(C)C(C)(C)C)N=C(N)N2[C@H](CCO)CC[C@@H]12`, the TGI in test [1] was 24.9 µM; in [2], 23.5 µM; in test [3] it was 27.2 µM; in test [4] it was 35.7 µM; in [5], 25.7 µM; in test [6] it was 40.1 µM. In addition, the figures for the TGI in test [7] and in test [8] were 28.9 µM and 27.2 µM, respectively.

For `COC(=O)[C@H](Cc1ccc(OC(C)(C)C)cc1)N[C@H](C)C(=O)N[C@@H](Cc1ccccc1)C(=O)OCc1ccccc1`, the TGI in test [1] was above 100 µM; in test [10] it was above 100 µM; in [2] it was above 100 µM; in test [3], above 100 µM; in test [4], above 100 µM; in [5], 81.5 µM. Further, the TGI in [6], in [8] and in test [9] was above 100 µM each time.

Turning to `CC(C)(C)OC(=O)NCCCCC(NC(=O)C(Cc1c[nH]c2ccccc12)NC(=O)OCC1c2ccccc2-c2ccccc21)C(=O)N1CCCC1C(=O)NCC(N)=O` (stereo not given) (Fmoc-WK(Boc)PG-NH2; configuration not given here), the TGI in [1], in test [10], in test [2], in test [3], in [5] and in [6] was above 100 µM each time. In addition, the TGI in test [7], in test [8] and in test [9] was above 100 µM in each case.

For `Cn1c(=O)sc2cc(C(=S)N3CCC(Cc4ccccc4)CC3)ccc21`, the TGI in test [1], in test [10], in [2], in test [4], in [5] and in test [6] was above 100 µM each time. Further, the TGI in test [8] and in test [9] was above 100 µM throughout.

For `C=C(CN1CC2C[C@](C(=O)OC)(c3cc4ccccc4[nH]3)C1C(OC)C2OC)S(=O)(=O)c1ccccc1` (stereo not given in full), the TGI in test [1] came to 10.7 µM; in [10], 10.9 µM; in [2] it was 10.2 µM; in test [3], 8.33 µM; in [5], 18.9 µM; in test [6], 9.24 µM. Besides, the TGI in [7] is 28.2 µM; in test [8], 13.8 µM; in [9], above 77.2 µM.

Turning to `COc1ccc(C(=O)/C=C/c2ccc(OCCSCCCCCCCCCCSCCOc3ccc(/C=C/C(=O)c4ccc(OC)c(OC)c4)cc3)cc2)cc1OC`, the TGI in test [1], in [10], in test [4], in test [5], in test [6] and in test [7] was above 100 µM throughout. Also, the TGI in test [8] and in test [9] was above 100 µM each time.

For `COC(=O)C1(C(=O)OC)N=C(C)OC1/C=C/c1ccccc1` (stereo not given), the TGI in test [1], in [2], in test [3], in test [4], in test [5] and in test [6] was above 100 µM in each case. Also, the TGI in test [7], in [8] and in test [9] was above 100 µM in each case.

`COC(=O)/C=C/C1(O)C=CC(=O)C=C1`: the TGI in test [1] was 17.6 µM; in [2], 4.93 µM; in test [3], above 32.1 µM; in test [4], above 60.2 µM; in [5], 13.2 µM; in [6], 5.25 µM. The TGI in test [7] is above 20.8 µM; in [8] it was 42.2 µM; in test [9] it was 10.7 µM.

On to `COC(=O)C1=C(C(=O)OC)SC2(S1)C(C(=O)OC)=C(C(=O)OC)Sc1c2ssc1=Nc1ccc(Cl)cc1`, for which the TGI in test [1] was 2.96 µM; in test [10] it was above 100 µM; in [2] it was 2.71 µM; in test [3], 1.93 µM; in test [4], 3.15 µM; in test [5], 2.42 µM. Also, the TGI in test [6] is 2.7 µM; in test [7] it was 3.45 µM; in test [8], 4.29 µM.

Regarding `COc1ccc(C2C3CCc4ccccc4C3=NN2S(=O)(=O)c2ccc(/C=C/C(=O)O)cc2)cc1` (stereo not given), the TGI in test [1] is 18.6 µM; in [2], 86.3 µM; in test [3], above 100 µM; in [5] it was 6.55 µM; in test [6], 14.1 µM; in [7], above 100 µM. The TGI was 4.72 µM in [8] and 22.9 µM in test [9].

With `O=c1cn[nH]c(=S)n1/N=C/c1c[nH]c2ccccc12`, the TGI in [1], in [10], in test [2], in test [4], in test [5] and in test [6] was above 100 µM in each case. In addition, the TGI in test [8] was above 100 µM; in test [9], 30.3 µM.

On to `CN1CCN(c2ccc3nc(-c4ccc5nc(-c6ccc(O)cc6)[nH]c5c4)[nH]c3c2)CC1`, for which the GI50 in test [1] is 97.9 µM; in test [2], 13.5 µM and 59.5 µM and 10.1 µM; in test [5], 5.33 µM; in test [7], 4.32 µM and 14.2 µM; in test [9] it was 12.9 µM (2×) and 15.4 µM. In addition, the TGI in test [1] came to 158 µM; in [2], 43.1 µM; in [3], 169 µM; in test [4], 763 µM; in test [5] it was 422 µM; in test [6], 666 µM. For the same molecule, the TGI in test [7] is 153 µM; in test [8] it was 948 µM; in test [9] it was 381 µM.

Regarding `CSc1ncc2c(n1)sc1c(=O)n(-c3ccccc3)cnc12`, the TGI in [1], in test [10], in test [2], in test [3], in test [4] and in [6] was above 100 µM in each case. The TGI in [7], in test [8] and in test [9] was above 100 µM in each case.

With `COc1ccc(C2CC3(c4ccccc4)ON=C(c4ccccc4)N3c3ccccc3S2)cc1` (stereo not given), the TGI in [1], in test [10], in test [2], in test [4], in test [5] and in test [6] was above 100 µM each time. Also, the TGI in [7], in test [8] and in [9] was above 100 µM throughout.

Consider `CC(OC(=O)C(CC(=O)OC(C)(C)C)NC(=O)OC(C)(C)C)C(=O)OCc1ccccc1` (stereo not given), for which the TGI in test [10], in test [2], in test [5], in [6], in test [7] and in [8] was above 100 µM each time. The TGI in test [9] was above 100 µM.

As for `CC(=O)C1=C(C)N(c2ccc(C)cc2)C2(O)C3=C(C(=O)c4ccccc4C3=O)C(O)=CC12Cl` (stereo not given), the TGI in test [1] was 22.2 µM; in test [10] it was above 100 µM; in test [2], 45 µM; in [3], above 100 µM; in test [4], 10.3 µM; in [5] it was above 100 µM. The TGI is above 100 µM in [6], 69.1 µM in test [7] and above 100 µM in [8].

For `COc1cc2c(cc1OCCCCOc1cc3c(cc1OC)C(=O)N1CCC[C@H]1C(=O)N3)N=C[C@@H]1CCCN1C2=O`, the TGI in [1] worked out at 14.8 µM; in test [10], 27.6 µM; in [2], 25.7 µM; in test [4], 19.9 µM; in test [5], 18.1 µM; in test [6] it was 27.9 µM. In addition, in [7], the TGI is 28.7 µM.

`COc1ccccc1/C=C1\NC(=S)N(/C=C2\C(=O)Oc3ccccc3C2=O)C1=O`: the TGI is 78.7 µM in test [1]; above 100 µM in [10]; above 100 µM in test [2]; 53.3 µM in [3]; above 100 µM in test [5]; above 100 µM in test [6]. The TGI is above 100 µM in test [8] and 76.5 µM in [9].

`CC1C(OC2O[C@@H]3O[C@@]4(C)CC[C@H]5[C@H](C)CC[C@@H](C2C)[C@@]35O4)O[C@@H]2O[C@@]3(C)CC[C@H]4[C@H](C)CC[C@@H]1[C@@]24O3` (stereo not given in full): the TGI in test [1], in test [10], in [2], in [4], in [5] and in [6] was above 50 µM each time. Besides, the TGI in test [7], in test [8] and in [9] was above 50 µM each time.

Regarding `Cc1ccc(S(=O)c2sccc2C=O)cc1` (stereo not given), the TGI in test [1] was above 100 µM; in test [10], 65.9 µM; in test [4] it was above 100 µM; in test [5], 43.8 µM; in test [6] it was above 100 µM; in test [7] it was above 100 µM. Further, the TGI in test [8] was above 100 µM; in test [9] it was 56 µM.

On to `CC(C)(CCCCC(C)(C)[N+](C)(C)C)[N+](C)(C)C`, for which the TGI in [1], in [10], in test [5], in [7], in [8] and in [9] was above 100 µM each time.

Consider `CCOC(=O)C(C(=S)SC)c1nn2c(=O)cc(C)nc2s1` (stereo not given), for which the TGI in test [1] was 35.1 µM; in [10], 44.9 µM; in test [2] it was 34.8 µM; in [3] it was 43.9 µM; in test [5], 33.1 µM; in test [6] it was 37.8 µM. For the same molecule, the TGI in [7] came to 42.6 µM; in test [8], 47.4 µM; in test [9], 77.5 µM.

Turning to `CSc1ccc(/C=C2\N=C(c3ccccc3)N(c3nc4cc(C)c(C)cc4s3)C2=O)cc1`, the TGI in test [1] was found to be 84.5 µM; in test [10], 92.1 µM; in [2] it was 77.4 µM; in test [3] it was 73.3 µM; in test [5] it was 37.2 µM; in test [6], 58.6 µM. For the same molecule, the values for the TGI in [7], in test [8] and in test [9] were above 100 µM, above 100 µM and 34.6 µM, respectively.
